Biological target: ATP-binding cassette sub-family C member 2 (Homo sapiens, UniProt Q92887)
Experiment: TP_TRANSPORTER: ATP hydrolysis in MRP2 reconstituted into proteoliposome
Format: functional, subcellular

ATP-binding cassette sub-family C member 2, sequence (Q92887 whole entry): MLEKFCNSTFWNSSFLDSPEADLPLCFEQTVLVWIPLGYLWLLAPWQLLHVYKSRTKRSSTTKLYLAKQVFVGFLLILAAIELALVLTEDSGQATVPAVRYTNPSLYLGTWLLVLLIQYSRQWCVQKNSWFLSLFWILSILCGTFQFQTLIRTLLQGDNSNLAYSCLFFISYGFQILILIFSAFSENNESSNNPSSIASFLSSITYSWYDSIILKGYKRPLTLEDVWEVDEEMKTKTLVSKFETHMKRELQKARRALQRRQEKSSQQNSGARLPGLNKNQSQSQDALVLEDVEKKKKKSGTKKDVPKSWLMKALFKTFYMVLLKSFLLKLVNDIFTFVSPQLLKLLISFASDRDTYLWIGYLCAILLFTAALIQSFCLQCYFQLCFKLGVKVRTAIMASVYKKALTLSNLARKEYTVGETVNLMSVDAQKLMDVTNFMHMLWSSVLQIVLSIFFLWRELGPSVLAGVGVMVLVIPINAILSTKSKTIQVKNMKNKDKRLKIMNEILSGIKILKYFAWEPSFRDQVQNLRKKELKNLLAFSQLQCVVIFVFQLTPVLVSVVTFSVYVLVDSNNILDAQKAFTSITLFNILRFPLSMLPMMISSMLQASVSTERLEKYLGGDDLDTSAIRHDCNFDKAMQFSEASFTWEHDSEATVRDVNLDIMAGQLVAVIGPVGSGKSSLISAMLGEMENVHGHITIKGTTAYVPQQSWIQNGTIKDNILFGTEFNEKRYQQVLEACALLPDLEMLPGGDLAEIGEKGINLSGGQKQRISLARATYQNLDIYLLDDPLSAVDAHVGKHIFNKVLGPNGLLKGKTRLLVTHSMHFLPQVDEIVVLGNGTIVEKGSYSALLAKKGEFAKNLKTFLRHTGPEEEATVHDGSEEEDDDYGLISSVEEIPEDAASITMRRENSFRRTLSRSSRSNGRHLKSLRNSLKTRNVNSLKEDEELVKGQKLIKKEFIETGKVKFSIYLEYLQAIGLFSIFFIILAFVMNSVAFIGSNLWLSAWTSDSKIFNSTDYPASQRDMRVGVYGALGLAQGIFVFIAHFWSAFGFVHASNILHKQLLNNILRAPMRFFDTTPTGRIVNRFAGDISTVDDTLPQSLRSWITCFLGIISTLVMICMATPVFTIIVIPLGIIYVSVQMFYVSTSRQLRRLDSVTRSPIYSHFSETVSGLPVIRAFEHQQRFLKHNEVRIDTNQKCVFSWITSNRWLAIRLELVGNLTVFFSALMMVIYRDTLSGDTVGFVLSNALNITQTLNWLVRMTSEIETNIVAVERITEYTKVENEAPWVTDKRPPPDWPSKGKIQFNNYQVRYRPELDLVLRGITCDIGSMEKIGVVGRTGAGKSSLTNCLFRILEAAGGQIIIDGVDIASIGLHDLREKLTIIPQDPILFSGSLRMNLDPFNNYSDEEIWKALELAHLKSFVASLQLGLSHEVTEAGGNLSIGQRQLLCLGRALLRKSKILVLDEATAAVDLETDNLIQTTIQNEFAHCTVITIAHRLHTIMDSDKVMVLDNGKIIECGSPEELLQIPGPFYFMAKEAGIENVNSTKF

Compound	Activity
CCCCCCCCCCSC[C@H](NC(=O)CC[C@H](N)C(=O)O)C(=O)NCC(=O)O	substrate [+]
N[C@@H](CCC(=O)N[C@@H](CS)C(=O)NCC(=O)O)C(=O)O [GLUTATHIONE]	substrate [+]

From ChEMBL document CHEMBL2074183, “Purification of the human apical conjugate export pump MRP2 reconstitution and functional characterization as substrate-stimulated ATPase” (Eur J Biochem, 1999)
